Measurements from PubChem BioAssay AID2060489 (Molecular Pharmacology Branch, DTP, NCI, 2025).

Test system: 922993-354-T-J3-PDC complex spheroids, viability
Assay: Anticancer human tumor 922993-354-T-J3-PDC patient-derived endometrial carcinoma cell line growth inhibition [GQUAD]
Conditions: for IC50: curve of first compound; for viability, T/C: stronger effect = lower value
How it was run: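 Multi-cell-type spheroids of tumor cells with HUVEC and mesenchymal stem cells, treated with drug combinations. Concentrations descend in half-log steps from near clinical Cmax, or from 10 microM where Cmax is unknown; viability read-out.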

[1] = second compound 0.0316 µM, first compound 0.0316 µM
[2] = second compound 0.0316 µM, first compound 0.1 µM
[3] = second compound 0.0316 µM, first compound 0.316 µM
[4] = second compound 0.0316 µM, first compound 1 µM
[5] = second compound 0.0316 µM, first compound 3.16 µM
[6] = second compound 0.0316 µM, first compound 10 µM
[7] = second compound 0.1 µM, first compound 0.0316 µM
[8] = second compound 0.1 µM, first compound 0.1 µM
[9] = second compound 0.1 µM, first compound 0.316 µM
[10] = second compound 0.1 µM, first compound 1 µM
[11] = second compound 0.1 µM, first compound 3.16 µM
[12] = second compound 0.1 µM, first compound 10 µM
[13] = second compound 0.316 µM, first compound 0.0316 µM
[14] = second compound 0.316 µM, first compound 0.1 µM
[15] = second compound 0.316 µM, first compound 0.316 µM
[16] = second compound 0.316 µM, first compound 1 µM
[17] = second compound 0.316 µM, first compound 3.16 µM
[18] = second compound 0.316 µM, first compound 10 µM
[19] = second compound 1 µM, first compound 0.0316 µM
[20] = second compound 1 µM, first compound 0.1 µM
[21] = second compound 1 µM, first compound 0.316 µM
[22] = second compound 1 µM, first compound 1 µM
[23] = second compound 1 µM, first compound 3.16 µM
[24] = second compound 1 µM, first compound 10 µM
[25] = second compound 3.16 µM, first compound 0.0316 µM
[26] = second compound 3.16 µM, first compound 0.1 µM
[27] = second compound 3.16 µM, first compound 0.316 µM
[28] = second compound 3.16 µM, first compound 1 µM
[29] = second compound 3.16 µM, first compound 3.16 µM
[30] = second compound 3.16 µM, first compound 10 µM
[31] = second compound 10 µM, first compound 0.0316 µM
[32] = second compound 10 µM, first compound 0.1 µM
[33] = second compound 10 µM, first compound 0.316 µM
[34] = second compound 10 µM, first compound 1 µM
[35] = second compound 10 µM, first compound 3.16 µM
[36] = second compound 10 µM, first compound 10 µM
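Also: spheroids exposed to compounds for seven days.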
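For viability, T/C in this document: 100% = DMSO vehicle control viability.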

SMILES: COc1cc(C2c3cc4c(cc3C(OC3OC5COC(C)OC5C(O)C3O)C3COC(=O)C23)OCO4)cc(OC)c1O (stereo not drawn) + CN(C)c1ccc(Nc2c3ccc(NC(=O)CCN4CCCC4)cc3nc3cc(NC(=O)CCN4CCCC4)ccc23)cc1
- IC50 (second compound 0.0316 µM): > 10 µM
- IC50 (second compound 0.1 µM): 9.49 µM
- IC50 (second compound 0.316 µM): 9.2 µM
- IC50 (second compound 1 µM): 8.94 µM
- IC50 (second compound 3.16 µM): > 10 µM
- IC50 (second compound 10 µM): > 10 µM
- viability, T/C [1]: 116%
- viability, T/C [2]: 90%
- viability, T/C [3]: 90.7%
- viability, T/C [4]: 88.1%
- viability, T/C [5]: 72.5%
- viability, T/C [6]: 58.3%
- viability, T/C [7]: 109%
- viability, T/C [8]: 102%
- viability, T/C [9]: 91.3%
- viability, T/C [10]: 85.2%
- viability, T/C [11]: 81.1%
- viability, T/C [12]: 46.3%
- viability, T/C [13]: 90.6%
- viability, T/C [14]: 101%
- viability, T/C [15]: 83.7%
- viability, T/C [16]: 79.5%
- viability, T/C [17]: 82.9%
- viability, T/C [18]: 46.9%
- viability, T/C [19]: 79.7%
- viability, T/C [20]: 79.7%
- viability, T/C [21]: 105%
- viability, T/C [22]: 71.5%
- viability, T/C [23]: 95.8%
- viability, T/C [24]: 46.1%
- viability, T/C [25]: 109%
- viability, T/C [26]: 99.3%
- viability, T/C [27]: 114%
- viability, T/C [28]: 98.5%
- viability, T/C [29]: 91.8%
- viability, T/C [30]: 58.3%
- viability, T/C [31]: 94.4%
- viability, T/C [32]: 106%
- viability, T/C [33]: 111%
- viability, T/C [34]: 79.3%
- viability, T/C [35]: 106%
- viability, T/C [36]: 70.5%

SMILES: COc1cccc2c1C(=O)c1c(O)c3c(c(O)c1C2=O)CC(O)(C(=O)CO)CC3OC1CC(N)C(O)C(C)O1 (stereo not drawn) + CN(C)c1ccc(Nc2c3ccc(NC(=O)CCN4CCCC4)cc3nc3cc(NC(=O)CCN4CCCC4)ccc23)cc1
- IC50 (second compound 0.0316 µM): 1.66 µM
- IC50 (second compound 0.1 µM): 2.79 µM
- IC50 (second compound 0.316 µM): 4.11 µM
- IC50 (second compound 1 µM): 5.55 µM
- IC50 (second compound 3.16 µM): 5.92 µM
- IC50 (second compound 10 µM): 6.47 µM
- viability, T/C [1]: 91.1%
- viability, T/C [2]: 98%
- viability, T/C [3]: 108%
- viability, T/C [4]: 61.5%
- viability, T/C [5]: 45.6%
- viability, T/C [6]: 25.1%
- viability, T/C [7]: 103%
- viability, T/C [8]: 85.5%
- viability, T/C [9]: 90.6%
- viability, T/C [10]: 87.8%
- viability, T/C [11]: 45.4%
- viability, T/C [12]: 34.1%
- viability, T/C [13]: 94%
- viability, T/C [14]: 94.8%
- viability, T/C [15]: 67.3%
- viability, T/C [16]: 78.5%
- viability, T/C [17]: 55.7%
- viability, T/C [18]: 31.9%
- viability, T/C [19]: 92.4%
- viability, T/C [20]: 85.6%
- viability, T/C [21]: 76.3%
- viability, T/C [22]: 73.9%
- viability, T/C [23]: 78.7%
- viability, T/C [24]: 20.8%
- viability, T/C [25]: 103%
- viability, T/C [26]: 98.4%
- viability, T/C [27]: 104%
- viability, T/C [28]: 86.5%
- viability, T/C [29]: 81%
- viability, T/C [30]: 26.4%
- viability, T/C [31]: 112%
- viability, T/C [32]: 120%
- viability, T/C [33]: 93.4%
- viability, T/C [34]: 97.6%
- viability, T/C [35]: 80%
- viability, T/C [36]: 32.6%

SMILES: Nc1ccn(C2OC(CO)C(O)C2(F)F)c(=O)n1 (stereo not drawn) + CN(C)c1ccc(Nc2c3ccc(NC(=O)CCN4CCCC4)cc3nc3cc(NC(=O)CCN4CCCC4)ccc23)cc1
- IC50 (second compound 0.0316 µM): < 0.0316 µM
- IC50 (second compound 0.1 µM): < 0.0316 µM
- IC50 (second compound 0.316 µM): < 0.0316 µM
- IC50 (second compound 1 µM): < 0.0316 µM
- IC50 (second compound 3.16 µM): < 0.0316 µM
- IC50 (second compound 10 µM): < 0.0316 µM
- viability, T/C [1]: 13.6%
- viability, T/C [2]: 14.7%
- viability, T/C [3]: 11.9%
- viability, T/C [4]: 16.6%
- viability, T/C [5]: 10.6%
- viability, T/C [6]: 12.7%
- viability, T/C [7]: 13.4%
- viability, T/C [8]: 13.2%
- viability, T/C [9]: 12.2%
- viability, T/C [10]: 10.8%
- viability, T/C [11]: 10.4%
- viability, T/C [12]: 11.9%
- viability, T/C [13]: 13.9%
- viability, T/C [14]: 9.77%
- viability, T/C [15]: 10.7%
- viability, T/C [16]: 13.1%
- viability, T/C [17]: 9.83%
- viability, T/C [18]: 11.2%
- viability, T/C [19]: 12.5%
- viability, T/C [20]: 8.2%
- viability, T/C [21]: 12%
- viability, T/C [22]: 13%
- viability, T/C [23]: 12%
- viability, T/C [24]: 11.8%
- viability, T/C [25]: 13.8%
- viability, T/C [26]: 11.6%
- viability, T/C [27]: 16.8%
- viability, T/C [28]: 12.2%
- viability, T/C [29]: 11.3%
- viability, T/C [30]: 13.3%
- viability, T/C [31]: 15.8%
- viability, T/C [32]: 11.4%
- viability, T/C [33]: 11.6%
- viability, T/C [34]: 14.4%
- viability, T/C [35]: 11%
- viability, T/C [36]: 11.3%

SMILES: O=c1[nH]cc(F)c(=O)[nH]1 + CN(C)c1ccc(Nc2c3ccc(NC(=O)CCN4CCCC4)cc3nc3cc(NC(=O)CCN4CCCC4)ccc23)cc1
- IC50 (second compound 0.0316 µM): 5.9 µM
- IC50 (second compound 0.1 µM): 4.59 µM
- IC50 (second compound 0.316 µM): 3.93 µM
- IC50 (second compound 1 µM): 5.83 µM
- IC50 (second compound 3.16 µM): 5.93 µM
- IC50 (second compound 10 µM): 5.37 µM
- viability, T/C [1]: 82.1%
- viability, T/C [2]: 84.7%
- viability, T/C [3]: 81.8%
- viability, T/C [4]: 91.8%
- viability, T/C [5]: 83.7%
- viability, T/C [6]: 21.4%
- viability, T/C [7]: 110%
- viability, T/C [8]: 93.9%
- viability, T/C [9]: 112%
- viability, T/C [10]: 81%
- viability, T/C [11]: 69.2%
- viability, T/C [12]: 15.7%
- viability, T/C [13]: 103%
- viability, T/C [14]: 100%
- viability, T/C [15]: 91.4%
- viability, T/C [16]: 78.1%
- viability, T/C [17]: 56.8%
- viability, T/C [18]: 22.5%
- viability, T/C [19]: 95.8%
- viability, T/C [20]: 100%
- viability, T/C [21]: 90.6%
- viability, T/C [22]: 105%
- viability, T/C [23]: 82.1%
- viability, T/C [24]: 21.9%
- viability, T/C [25]: 90.4%
- viability, T/C [26]: 113%
- viability, T/C [27]: 105%
- viability, T/C [28]: 98.2%
- viability, T/C [29]: 87.5%
- viability, T/C [30]: 18.8%
- viability, T/C [31]: 117%
- viability, T/C [32]: 135%
- viability, T/C [33]: 121%
- viability, T/C [34]: 117%
- viability, T/C [35]: 72.9%
- viability, T/C [36]: 23.1%
